What was measured:
[1] = test system: FIP200; test: FIP200 phosphoisotypes, phosphate-affinity SDS gel mobility shift; assay type: cell-based, human; conditions: PC3; Gamitrinib 5 μM
Description: Analysis of phosphoisotypes was carried out by standard phosphate-affinity SDS gel electrophoresis, using a mobility shift protocol (56). Briefly, proteins were separated by electrophoresis on 3% polyacrylamide/0.5% SeaKem Gold Agarose (Lonza) gels containing the dinuclear metal complex Mn2+-Phos-tag (Acrylamide-pendant Phos-tag, Wako Chemicals). After removal of Mn2+ by washing the gels in blotting buffer containing 1 mM EDTA, proteins were transferred to PVDF membranes and detected by Western blotting using antibodies to FIP200 or pan-phosphorylated Ser residues.

[2] = test system: PC3 cells; test: Cell death by Trypan blue exclusion; assay type: cell-based; conditions: vs vehicle, Gamitrinib 5 μM, CCCP 12.5 μM, 2-DG 25 mM
Description: Tumor cells were plated onto 96-well plates at 3.7×10^3/well and treated with vehicle or Gamitrinib (5 μM). After 24 h, cell viability was assessed with a 3 (4,5-dimethyl-thyazoyl-2-yl)2,5 diphenyltetrazolium bromide (MTT) colorimetric assay (24), or, alternatively, by Trypan blue exclusion and light microscopy. Data were background-subtracted relative to vehicle-treated cultures. In some experiments, tumor cell proliferation was assessed by direct cell counting and light microscopy.

[3] = test system: PC3 cells; test: Lamella dynamics in live cells (SACED stroboscopic analysis); assay type: cell-based, human; conditions: Gamitrinib 5 μM
Description: Tumor cells growing at low confluency (3-5×10^4/well) on high optical quality 96 well μ-plates (Ibidi) were imaged with a 40× objective on a Nikon TE300 inverted time-lapse microscope equipped with a video system containing a Evolution QEi camera and a time-lapse video cassette recorder. All experiments were carried out in atmosphere-equilibrated environment at 37° C. and 5% CO2. Phase contrast images were captured at 0.5 sec intervals for 5 min (600 images=300 sec) and merged into sequence files using ImagePro Plus 7. Real time dynamics of a particular cellular region were quantified by Stroboscopic Analysis of Cell Dynamics (SACED) (55), with generation of digital steps from the first 120 sec (240 frames) of the sequence files imported into Image J software. A particular region of 16.2 μm×0.162 μm (“SACED line”) was selected in cells under analysis, duplicated and montaged in sequence to display the region over time in a stroboscopic image. […] Structures such as protruding lamellipodia and ruffles were manually labeled and the frequency of ruffles per min was calculated. Mean values were calculated from at least 15 cells from 4 separate wells. All experiments were repeated at least twice with different tumor cell types.

[4] = test system: Rac1 and Cdc42; test: Rac1 and Cdc42-GTP pull-down assays; assay type: cell-based, human; conditions: serum-starved A549 cells stimulated with EGF or FBS; Gamitrinib 5 μM
Description: The activation of Rho family small GTPases, Rac1 or Cdc42 was examined in pull-down assays using the p21-binding domain (PBD, amino acids 70-117) of the p21-activated kinase-1 (Pak1). Briefly, a pGEX TK-Pak1 PBD cDNA (Addgene, Cat. no. #12217) was purified, transformed into BL21 E. coli competent cells (Stratagene), and expressed as recombinant GST fusion protein after induction with 1 mM IPTG for 4 h at 34° C. Cells were suspended in PBS, pH 7.2, in the presence of protease inhibitors (SIGMA), and broken by sonication in 1% Triton X-100 for 30 min at 4° C. Soluble proteins were isolated by chromatography on glutathione Sepharose 4B (GS4B, GE Healthcare), eluted in 3 consecutive steps in buffer containing 10 mM GSH, 50 mM Tris HCl, pH 8.0, and further desalted using Amicon Ultra 4/10K columns (Millipore), for a total of 3 buffer changes to PBS, pH 7.2. The protein was diluted in glycerol, quantified by absorbance at 280 nm, and stored at −80° C. until use. The activity of each batch of recombinant protein was assessed by incubating aliquots of the cell lysate with non-hydrolyzable GTPγS at 0.1 mM (maximum binding) or 1 mM GDP (negative control) in low Mg2+ buffer at 30° C. followed by pull-down (54). […]

[5] = test system: LN229 cells; test: ATP measurement (luciferin-luciferase); assay type: cell-based, human; conditions: Gamitrinib 5-10 μM, concentration-dependent
Description: Intracellular ATP concentrations were measured by the luciferin-luciferase method using an ATP measuring kit (Biochain). The ATP concentration in each extract was determined in a microplate luminometer (Beckman Coulter) against standard ATP solutions used as reference.

[6] = test system: normal human MRC-5 lung fibroblasts; test: Wound closure assay, normal fibroblasts; assay type: cell-based; conditions: Gamitrinib 5-10 μM, 16 or 24 h
Description: For cell migration experiments using a wound closure assay, confluent monolayers of MRC-5 cells were incubated with vehicle or Gamitrinib (5-10 μM), and wounded using a 10 μl pipette tip. Three micrographs/well were obtained at time=0, 16 and 24 h after wounding, and the percentage of wound closure was normalized to the maximum initial area for each well. For analysis of tumor cell invasion in 3D organotypic spheroids, tumor cells (5×10^4) were seeded onto 96-well plates coated with 1.5% agar (Difco Noble Agar) in PBS, pH 7.4. Spheroids were allowed to form over a 72 h period and then embedded in […] of bovine collagen type I (Organogenesis) in 24-well plates. Spheroids were overlaid with 1 ml of growth medium, treated with various concentrations of Gamitrinib for 72 h, and analyzed for changes in maximum invasion distance and invasion area. Quantification of live vs. dead cells under the various conditions tested was performed by staining the spheroids with calcein-AM (live, bright cluster) and Topro-3 (dead, dark spots) (Invitrogen) for 2 h. Samples were imaged using a Prairie Ultima II 2-photon microscope (Prairie Technologies, Inc, Middleton, Wis.), and stacks of 100 slices were generated in 2 channels. 3-D reconstruction of the labeled spheroids and analysis of cell staining was carried out using ImagePro Plus 3D software (Media Cybernetics, Silver Spring Md.).

Gamitrinib
FIP200 gel mobility (phosphorylation) [1]: gel mobility retardation, suggestive of increased phosphorylation
cell death by Trypan blue exclusion [2]: did not affect
ruffling frequency and retraction speed ([3]; PC3): profound inhibition
cytoskeletal lamella dynamics ([3]; single cell time-lapse videomicroscopy): nearly complete loss
activation of Rac1 and Cdc42 (GTP-bound) [4]: impaired
ATP production in tumor cells [5]: inhibited ATP production
migration of normal human fibroblasts in wound closure assay [6]: did not affect migration

Source: US20140271667A1, “Methods and Compositions for Neoadjuvant Therapy” (The Wistar Institute of Anatomy and Biology, priority 2013, published 2014)
